Our source for the IC50 and inhibition values is patent US20230058189A1, “QUINOLIN-4-ONE AND 4(1H)-CINNOLINONE COMPOUNDS AND METHODS OF USING SAME” (Frequency Therapeutics, Inc., priority 2019, published 2023).

Some results are limits rather than exact numbers.

Common to all, as to type: biochemical
The target of one experiment is GSK3α (Homo sapiens, UniProt P49840). Put plainly: GSK3α in vitro enzymatic assay (Kinase-Glo Max luminescence). Particulars: recombinant human GSK3, 10 μM ATP; approximate values; read-out: Potency GSK3alpha. Here is the method:
(§1) Enzymatic activities of compounds of the present disclosure can be tested using recombinant human GSK3 in an in vitro enzymatic assay to determine the ability of the compounds of the present disclosure to inhibit GSK3α and GSK3β.
(§2) The assay was performed using Kinase-Glo® Max luminescence kinase assay kit (Promega). The assay measures kinase activity by quantitating the amount of ATP remaining in solution following a kinase reaction. The luminescent signal from the assay is correlated with the amount of ATP present and is inversely correlated with the amount of kinase activity.
(§3) To perform the assay, compounds were diluted in 10% DMSO and 5 μl of the dilution was added to a 50 μl reaction so that the final concentration of DMSO was 1% in all of reactions. The enzymatic reactions were conducted at 30° C. for 40 minutes. The 50 μl reaction mixture contained 40 mM Tris, pH 7.4, 10 mM MgCl2, 0.1 mg/ml BSA, 2 mM DTT, 0.1 mg/ml GSK tide substrate, 10 uM ATP and GSK3. After the enzymatic reaction, 50 μl of Kinase-Glo Max Luminescence kinase assay solution (Promega) was added to each reaction and plates were incubated for 15 minutes at room temperature. Luminescence signal was measured using a BioTek Synergy 2 microplate reader.
(§4) Kinase activity assays were performed in duplicate at each concentration. The luminescence data were analyzed using the computer software, GraphPad Prism. The difference between luminescence intensities in the absence of Kinase (Lut) and in the presence of Kinase (Luc) was defined as 100% activity (Lut-Luc). Using luminescence signal (Lu) in the presence of the compound, percent activity was calculated as: % activity={(Lut-Lu)/(Lut-Luc)}×100%, where Lu=the luminescence intensity in the presence of the compound (all percent activities below zero were shown zero in the table).
(§5) The values of percent activity versus a series of compound concentrations were then plotted using non-linear regression analysis of Sigmoidal dose-response curve generated with the equation Y=B+(T−B)/1+10((LogEC50−X)×Hill Slope), where Y=percent activity, B=minimum percent activity, T=maximum percent activity, X=logarithm of compound and Hill Slope=slope factor or Hill coefficient. The ICs, value was determined by the concentration causing a half-maximal percent activity.
(Kinase-Glo reads ATP consumption through a luciferase reaction.)

The next experiment addresses GSK3β (Homo sapiens, UniProt P49841). Put plainly: GSK3β in vitro enzymatic assay (Kinase-Glo Max luminescence). Particulars: recombinant human GSK3, 10 μM ATP; approximate values; read-out: Potency GSK3beta. Here is the method: as §1, §2, §3, §4, §5
The target in a further experiment is LSD-1 (Homo sapiens, UniProt O60341). As to the kind of experiment: LSD-1 A-screen (AlphaScreen) demethylase enzymatic assay. The note with it: approximate values; for inhibition at 50 µM: 50 μM compound, read-out: Potency LSD-1 % Inhibition at 50 μM; for IC50: read-out: Potency LSD-1 IC50. As to the method: (§6) Enzymatic activities of compounds of the present disclosure can be tested with recombinant human LSD using an in vitro enzymatic assay to determine the ability of the compounds of the present disclosure to inhibit LSD-1 and LSD2. Examples of the assay are provided below.
(§7) All of the enzymatic reactions were conducted in duplicate at room temperature for 60 minutes in a 10 μL mixture containing assay buffer, histone H3 peptide substrate, demthylase enzyme, and the test compound. These 10 μL reactions were carried out in wells of a 384-well Optiplate (PerkinElmer). The dilution of the compounds was first performed in 100% DMSO with the highest concentration at 5 mM Each intermediate compound dilution (in 100% DMSO) was then directly diluted 30× fold into assay buffer for 3.3× concentration (DMSO). […] From this intermediate step, 3 μL of compound was added to 4 μL of demethylase enzyme dilution was incubated for 30 minutes at room temperature. After this incubation, 3 μL of peptide substrate was added. The final DMSO concentration was 1%. After enzymatic reactions, 5 μL of anti-Mouse or anti-Rabbit Acceptor beads (PerkinElmer, diluted 1:500 with 1× detection buffer) and […] (BPS, diluted 1:800 with 1× detection buffer) were added to the reaction mix. After brief shaking, the plate was incubated for 30 minutes. Finally, 10 μL of AlphaScreen™ Streptavidin-conjugated donor beads (Perkin, diluted 1:125 with 1× detection buffer) were added. After 30 minutes, the samples were measured in an AlphaScreen microplate reader (EnSpire Alpha 2390 Multilabel Reader, Perkin Elmer).
(§8) Enzyme activity assays were performed in duplicates at each concentration. The A-screen intensity data were analyzed and compared. In the absence of the compound, the intensity in each data set was defined as 100% (Ce) activity. In the absence of enzyme, the intensity in each data set was defined as 0% (C0) activity. The percent activity in the presence of each compound was calculated according to the following equation: % activity=(C−C0)/(Ce−C0), where C=the intensity in the presence of the compound.
(§9) The value of percent activity versus a series of compound concentrations was then plotted using non-linear regression analysis of Sigmoidal dose-response curve generated with the equation Y=B+(T−B)/1+10((LogEC50−X)×Hill Slope), where Y=percent activity, B=minimum percent activity, T=maximum percent activity, X=logarithm of compound and Hill Slope=slope factor or Hill coefficient. The IC50 value was determined by the concentration causing a half-maximal percent activity.
A general note: Bead proximity is the source of the signal in Alpha formats.

The target of another experiment is T1, LSD2 (Homo sapiens, UniProt Q8NB78).
T1 sequence (Q8NB78 1-822): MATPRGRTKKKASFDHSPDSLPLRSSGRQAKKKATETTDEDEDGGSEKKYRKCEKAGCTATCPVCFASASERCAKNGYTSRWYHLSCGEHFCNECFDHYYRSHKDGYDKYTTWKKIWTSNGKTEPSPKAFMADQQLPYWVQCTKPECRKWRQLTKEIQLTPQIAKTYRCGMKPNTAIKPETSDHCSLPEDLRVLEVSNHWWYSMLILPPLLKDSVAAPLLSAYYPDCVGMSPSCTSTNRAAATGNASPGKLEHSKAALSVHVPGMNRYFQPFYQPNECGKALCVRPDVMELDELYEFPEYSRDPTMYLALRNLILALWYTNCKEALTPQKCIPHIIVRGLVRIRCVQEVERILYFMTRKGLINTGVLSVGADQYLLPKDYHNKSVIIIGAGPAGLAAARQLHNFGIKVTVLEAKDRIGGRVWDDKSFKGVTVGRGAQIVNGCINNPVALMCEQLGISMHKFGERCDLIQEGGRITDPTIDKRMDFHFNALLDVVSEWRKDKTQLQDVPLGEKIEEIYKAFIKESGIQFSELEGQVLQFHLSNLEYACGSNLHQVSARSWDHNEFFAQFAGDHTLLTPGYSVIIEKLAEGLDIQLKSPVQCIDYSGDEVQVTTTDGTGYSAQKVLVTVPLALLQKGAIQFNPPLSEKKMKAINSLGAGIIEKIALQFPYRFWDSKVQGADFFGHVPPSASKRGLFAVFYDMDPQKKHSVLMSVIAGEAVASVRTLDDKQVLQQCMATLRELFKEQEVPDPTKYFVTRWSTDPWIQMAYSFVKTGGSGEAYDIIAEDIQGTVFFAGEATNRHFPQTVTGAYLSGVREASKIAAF
As to the kind of experiment: LSD2 A-screen (AlphaScreen) demethylase enzymatic assay. The note with it: approximate values; for inhibition at 50 µM: 50 μM compound, read-out: Potency LSD-2 % Inhibition at 50 μM; for IC50: read-out: Potency LSD-2 IC50. Here is the method:
as §6, §7, §8, §9

Chain of GSK3α (P49840 whole entry): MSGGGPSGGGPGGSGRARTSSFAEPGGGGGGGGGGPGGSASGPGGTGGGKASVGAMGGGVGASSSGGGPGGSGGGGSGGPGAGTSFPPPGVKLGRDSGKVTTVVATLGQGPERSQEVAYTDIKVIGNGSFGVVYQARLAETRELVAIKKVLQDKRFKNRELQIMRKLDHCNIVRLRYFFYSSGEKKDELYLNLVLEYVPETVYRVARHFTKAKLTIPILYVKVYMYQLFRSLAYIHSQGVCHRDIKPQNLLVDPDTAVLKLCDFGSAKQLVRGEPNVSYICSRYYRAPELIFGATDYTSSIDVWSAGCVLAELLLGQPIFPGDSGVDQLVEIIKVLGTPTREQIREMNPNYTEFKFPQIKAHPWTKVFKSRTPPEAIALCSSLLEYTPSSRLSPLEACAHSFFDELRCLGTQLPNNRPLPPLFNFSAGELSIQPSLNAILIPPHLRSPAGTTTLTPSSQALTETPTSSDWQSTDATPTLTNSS
Chain of GSK3β (P49841 whole entry): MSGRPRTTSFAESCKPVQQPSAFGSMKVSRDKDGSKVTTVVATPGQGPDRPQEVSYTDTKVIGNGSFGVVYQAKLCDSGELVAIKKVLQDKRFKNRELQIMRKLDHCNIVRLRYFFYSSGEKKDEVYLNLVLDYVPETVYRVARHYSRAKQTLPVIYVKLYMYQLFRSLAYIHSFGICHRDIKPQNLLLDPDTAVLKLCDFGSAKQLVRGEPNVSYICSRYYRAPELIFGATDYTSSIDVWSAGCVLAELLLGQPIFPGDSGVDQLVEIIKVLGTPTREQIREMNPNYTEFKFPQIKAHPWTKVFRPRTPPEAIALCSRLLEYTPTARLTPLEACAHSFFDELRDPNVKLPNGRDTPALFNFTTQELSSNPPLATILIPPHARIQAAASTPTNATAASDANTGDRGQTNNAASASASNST

With `CCn1cc(C(=O)O)c(=O)c2c(N)c(F)c(N[C@@H]3CC[C@H]3c3ccccc3)cc21` (relative stereo) [Compound I-13], the IC50 was 628 nM on GSK3α and 555 nM at GSK3β. The inhibition (as a rule, the drop in the measured response relative to a control, in per cent) at 50 µM on LSD-1 was determined as 26%; on LSD2 it was 18%.

With `CCn1cc(C(=O)O)c(=O)c2c(N)c(F)c(N[C@@H]3CC[C@@H]3c3ccccc3)cc21` (relative stereo) [Compound I-14], the IC50 on GSK3α and at GSK3β was above 10000 nM in each case. For the same molecule, the inhibition at 50 µM turned out to be 5% at LSD-1 and 3% on LSD2.

Turning to `CCn1cc(C(=O)O)c(=O)c2c(N)c(F)c(N[C@@H]3C[C@@H]3c3ccccc3)cc21` (relative stereo) [Compound I-23], the IC50 on GSK3α is 221 nM; at GSK3β it was 770 nM. The inhibition at 50 µM at LSD-1 was found to be 26%; at LSD2, 16%.

Take `CCn1cc(C(=O)O)c(=O)c2c(N)c(F)c(N3CCC(N[C@@H]4C[C@H]4c4ccccc4)CC3)cc21` (relative stereo) [Compound I-26]: the figures for the IC50 on GSK3α, on GSK3β and on LSD-1 were above 10000 nM, above 10000 nM and 1500 nM, respectively. Besides, at LSD2, the inhibition at 50 µM came out at 53%.

As to `CCn1cc(C(=O)O)c(=O)c2c(N)c(F)c(N[C@H]3CC[C@H](N[C@@H]4C[C@H]4c4ccccc4)CC3)cc21` (relative stereo) [Compound I-27], the IC50 at GSK3α stood at 47 nM; at GSK3β, 75 nM; at LSD-1, 1600 nM. Further, the inhibition at 50 µM on LSD2 stood at 45%.

On to `CCn1cc(C(=O)O)c(=O)c2c(N)c(F)c(N[C@H]3CC[C@@H](N[C@@H]4C[C@H]4c4ccccc4)CC3)cc21` (relative stereo) [Compound I-28], for which the IC50 at GSK3α came to 451 nM; on GSK3β it was 691 nM; on LSD-1, 1300 nM. Besides, the inhibition at 50 µM on LSD2 came to 65%.

Consider `CCn1cc(C(=O)O)c(=O)c2c(N)c(F)c(NCCN[C@@H]3C[C@H]3c3ccccc3)cc21` (relative stereo) [Compound I-29], for which the IC50 on GSK3α is 119 nM; on GSK3β, 303 nM; at LSD-1 it was 6900 nM. Also, at LSD2, the inhibition at 50 µM is 54%.

As for `Nc1c(F)c(N[C@@H]2C[C@H]2c2ccccc2)c(F)c2c1c(=O)c(C(=O)O)cn2C1CC1` (relative stereo) [Compound I-32], the IC50 on GSK3α is 1600 nM; at GSK3β it was 2100 nM. The inhibition at 50 µM came out at 40% on LSD-1 and 36% at LSD2.

In the case of `CCn1cc(C#N)c(=O)c2c(N)c(F)c(N[C@@H]3C[C@H]3c3ccccc3)cc21` (relative stereo) [Compound I-38], the IC50 on GSK3α turned out to be 6.3 nM; on GSK3β, 2.5 nM. For the same molecule, the inhibition at 50 µM was 15% on LSD-1 and 0% on LSD2.

For `CCn1cc(C(=O)O)c(=O)c2c(N)c(F)c(N(C)CCN[C@H]3C[C@@H]3c3ccccc3)cc21` (relative stereo) [Compound I-50], the values for the IC50 on GSK3α, at GSK3β and at LSD-1 were above 10000 nM, above 10000 nM and 5500 nM, respectively. In addition, at LSD2, the inhibition at 50 µM turned out to be 50%.

Regarding `CCn1cc(C(=O)O)c(=O)c2c(N)cc(N[C@@H]3C[C@H]3c3ccccc3)cc21` (relative stereo) [Compound I-59], the values for the IC50 at GSK3α and on GSK3β were 4680 nM and 4430 nM, respectively. The results for the inhibition at 50 µM on LSD-1 and at LSD2 were 11% and 24%, respectively.

`CCn1cc(C(=O)O)c(=O)c2c(N)c(F)c(Nc3ccc([C@@H]4C[C@H]4N)cc3)cc21` (relative stereo) [Compound I-62]: the IC50 at GSK3α is 449 nM; on GSK3β, 504 nM; at LSD-1, above 100000 nM; at LSD2 it was 49000 nM.

For `CCn1cc(C(=O)O)c(=O)c2c(N)c(F)c(NC3CC(N[C@@H]4C[C@H]4c4ccccc4)C3)cc21` (relative stereo) [Compound I-70], the IC50 at GSK3α is 207 nM; at GSK3β, 169 nM; at LSD-1, 1100 nM; at LSD2 it was above 100000 nM.

As to `CCn1cc(C(=O)O)c(=O)c2c(N)c(F)c(NCCN[C@@H]3C[C@]34CCc3ccccc34)cc21` (relative stereo) [Compound I-81], the IC50 was 457 nM on GSK3α, 546 nM on GSK3β, 58 nM on LSD-1 and 43000 nM on LSD2.

Take `CCn1cc(C(=O)O)c(=O)c2c(N)c(F)c(NCCN[C@@H]3C[C@@]34CCc3ccccc34)cc21` (relative stereo) [Compound I-82]: the IC50 on GSK3α is 1550 nM; at GSK3β, 3380 nM; on LSD-1 it was 190 nM. For the same molecule, at LSD2, the inhibition at 50 µM is 76%.

For `CCn1cc(C(N)=O)c(=O)c2c(N)c(F)c(NCCN[C@H]3C[C@@H]3c3ccccc3)cc21` (relative stereo) [Compound I-83], the IC50 on GSK3α was 3.3 nM; on GSK3β, 3.4 nM; at LSD-1, 230 nM; at LSD2, above 100000 nM.

On to `CCn1cc(C#N)c(=O)c2c(N)c(F)c(NCCN[C@@H]3C[C@H]3c3ccccc3)cc21` (relative stereo) [Compound I-84], for which the IC50 on GSK3α came to 2.7 nM; at GSK3β, 2.2 nM; at LSD-1 it was 1400 nM; on LSD2, 41000 nM.
